Legend:
Assay type in all cases: in vivo
caspase-3-like proteases = experiment: DEVD-specific caspase activity in ICH rat brain tissue
Text: All animals received humane care in compliance with the institute's guidelines as outlined in “Guide for the Care and Use of Laboratory Animals” prepared by the National Academy of Sciences and published by the National Institutes of Health (NIH publication no. 86-23, revised 1985). Female Sprague-Dawley rats (250-300 grams (g); Harlan Sprague-Dawley, Inc., Indianapolis, Ind.) were anesthesized with an intramuscular injection of a mixture of ketamine and xylazine and set in supine in a Kopf headholder. The right carotid artery, external and internal branches, was exposed and the distal end of the external carotid freed and retracted to line with the internal carotid. […]
Caspase activation was determined in dissected brain tissue from the ispilateral and corresponding contralateral areas. […] General caspase activity was evaluated by enzymatic cleavage of chromophore p-nitroanilide (pNA) from the substrate N-acetyl-Asp-Glu-Val-Asp-pNA (DEVD-pNA; Sigma Chemical Co.). […] The reaction mixtures were incubated at 37° C. for 1 hour, and the formation of pNA was measured at 405 nm using a 96-well plate reader. Protein concentrations were determined using the Bio-Rad protein assay kit (Bio-Rad Laboratories, Hercules, Calif.) according to the manufacturer's specifications.

[1] = test system: traumatic brain injury (blunt head trauma); experiment: TUNEL-positive cells in blunt head trauma rat model
Text: UDCA and TUDCA are nontoxic, endogenously produced, bile acids that act both in vitro and in vivo as potent anti-apoptotic agents. In addition to their effects at preventing mitochondrial dysfunction by inhibiting membrane depolarization and channel formation (Rodrigues et al., J Clin Invest 1998;101:2790-2799 and Rodrigues et al., Cell Death Differ 1999;6:842-854), these molecules may also play key regulatory roles in signal transduction pathways by modulating cytosolic calcium levels and in gene expression by regulating transcription (Guicciari et al., Hepatology 2002;35:971-973). […] Administration of TUDCA almost completely abolished the appearance of TUNEL-positive cells, the activation of caspase-3-like proteases, and the histological damage of the peri-ICH region. These findings are consistent with the inhibition of neuronal apoptosis by TUDCA. Further, most neurons can be rescued by TUDCA up to 3 hours, and some up to 6 hours, from the onset of the hemorrhage, consistent with a delayed activation of neuronal cell death. Thus, at least in this model, many cells remain viable for several hours and can be recovered by an anti-apoptotic agent, provided therapy is initiated within this time window. Finally, TUDCA was also markedly effective at reducing apoptosis after brain injury in a blunt head trauma rat model. […]

[2] = test system: TUNEL-positive (apoptotic) cells in hemisphere ipsilateral to ICH; experiment: TUNEL staining of apoptotic cells in ICH rat brain
Text: All animals received humane care in compliance with the institute's guidelines as outlined in “Guide for the Care and Use of Laboratory Animals” prepared by the National Academy of Sciences and published by the National Institutes of Health (NIH publication no. 86-23, revised 1985). Female Sprague-Dawley rats (250-300 grams (g); Harlan Sprague-Dawley, Inc., Indianapolis, Ind.) were anesthesized with an intramuscular injection of a mixture of ketamine and xylazine and set in supine in a Kopf headholder. The right carotid artery, external and internal branches, was exposed and the distal end of the external carotid freed and retracted to line with the internal carotid. A PE-10 polyethylene tube (Becton-Dickinson, Sparks, Md.) was then introduced from the external into the internal carotid artery, and the former was ligated to hold the tube. TUDCA (Calbiochem-Novabiochem Corp., San Diego, Calif.) was dissolved in phosphate buffer, pH 7.4 at 400 milligrams per milliliter (mg/ml). Saline or TUDCA solution (1 milliliter per kilogram body weight (ml/kg bw)) were injected directly into the internal carotid artery, within 5 minutes. Different concentrations of TUDCA (10, 50, 100, and 200 mg/kg bw) were administered 1 hour prior to, or 1, 3, and 6 hours after collagenase injection. The polyethylene tube was finally removed, the end of the external carotid artery cauterized, and the wound closed. To induce stroke injury, the animals were placed in a stereotaxic apparatus and ICH induced by collagenase infusion (Rosenberg et al., Stroke 1990;21:801-807 and Chesney et al., Stroke 1995;26:312-316). In brief, a midline incision was made through the scalp to expose the skull. […]
At 2 days after collagenase infusion, rats were sacrificed for terminal deoxynucleotidyltransferase-mediated dUTP nick end labeling (TUNEL) of apoptotic cells. […] The number of TUNEL-positive cells was counted on a computer screen grid from at least three random fields (400×) within the region adjacent to the hemorrhagic core for each animal.

[3] = 100 mg/kg bw TUDCA, time-course 1 hour before to 6 hours after collagenase

C[C@H](CCC(=O)NCCS(=O)(=O)O)[C@H]1CC[C@H]2[C@@H]3[C@@H](O)C[C@@H]4C[C@H](O)CC[C@]4(C)[C@H]3CC[C@]12C [TUDCA, tauroursodeoxycholic acid]
caspase activity versus vehicle-injected animals (caspase-3-like proteases; [3]): remained markedly lower | reduction of caspase activation in the lesioned hemisphere (caspase-3-like proteases; 100 and 200 mg/kg bw TUDCA 1 hour before collagenase): 45-60% | reduction of apoptosis ([1]; 24-h pre-injury treatment plus treatments at head trauma and 24 h later): more than 50% | number of TUNEL-positive cells per high power field ([1]; 24-h pre-injury treatment plus two post-injury treatments, vehicle approximately 27): 12 | number of apoptotic cells (apoptotic versus total cells) ([2]; 100 mg/kg bw TUDCA 1 hour before collagenase, ipsilateral hemisphere, vehicle almost 30%): approximately 10% | TUNEL staining versus vehicle-injected animals [2, 3]: remained markedly lower | reduction of apoptosis ([2]; TUDCA at greater dosages (than 100 mg/kg bw), 1 hour before collagenase): > 65%
